{"source": "patent US7186743B2", "about": "“Substituted pyrazolyl compounds for the treatment of inflammation” (Pharmacia Corporation, priority 2001, dated 2007)", "target": "T1, IKK2 (Homo sapiens, UniProt O14920)", "T1 construct": "made in house; host or cells: insect cells (baculovirus, pFastBac; SF9)", "T1 sequence (O14920 1-756)": "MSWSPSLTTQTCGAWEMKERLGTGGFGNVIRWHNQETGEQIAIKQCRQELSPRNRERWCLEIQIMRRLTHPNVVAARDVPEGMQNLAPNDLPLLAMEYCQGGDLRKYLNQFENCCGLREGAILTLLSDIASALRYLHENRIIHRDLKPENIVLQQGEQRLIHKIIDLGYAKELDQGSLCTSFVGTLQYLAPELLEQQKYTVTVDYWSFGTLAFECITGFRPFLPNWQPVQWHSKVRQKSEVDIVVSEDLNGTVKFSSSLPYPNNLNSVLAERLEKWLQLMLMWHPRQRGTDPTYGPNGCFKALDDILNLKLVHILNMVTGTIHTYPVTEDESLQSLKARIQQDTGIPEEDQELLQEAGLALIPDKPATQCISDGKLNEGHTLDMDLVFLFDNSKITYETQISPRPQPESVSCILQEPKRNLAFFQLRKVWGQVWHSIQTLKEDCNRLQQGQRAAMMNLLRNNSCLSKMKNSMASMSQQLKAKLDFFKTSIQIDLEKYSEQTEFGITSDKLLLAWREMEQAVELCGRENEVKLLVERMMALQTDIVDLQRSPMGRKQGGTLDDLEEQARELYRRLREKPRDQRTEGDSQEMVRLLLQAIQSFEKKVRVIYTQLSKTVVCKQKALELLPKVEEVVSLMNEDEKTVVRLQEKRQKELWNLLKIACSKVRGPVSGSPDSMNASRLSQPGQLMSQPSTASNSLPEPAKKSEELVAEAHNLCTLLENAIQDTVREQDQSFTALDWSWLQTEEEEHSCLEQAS", "test": "IKKβ Resin Enzyme Assay (IKK2 resin)", "format": "biochemical", "in_short": "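Radiometric test: [γ-33P]ATP incorporation into a biotinylated IκBα peptide, 30 min at 25° C, pH 7.6 Hepes with MgCl2/MnCl2 and 1 μM cold ATP. Reaction is quenched with Dowex resin and the supernatant is counted. Kinase is FLAG-purified homodimeric recombinant human IKK2 from insect cells.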", "key": {"[1]": {"details": "Table 3, read-out: IKK Resin IC50"}, "[2]": {"details": "Table 4, read-out: IKK2 Resin IC50"}}, "note": "Read-outs that look alike come from different tables or passages of the source."}
{"smiles": "CN(C)S(=O)(=O)c1ccc(-n2nc(C(N)=O)c3c2-c2cc(NC(=O)c4ccccc4Cl)ccc2CC3)cc1", "note": "[Example 50, 8-[(2-chlorobenzoyl)amino]-1-{4-[(dimethylamino)sulfonyl]phenyl}-4,5-dihydro-1H-benzo[g]indazole-3-carboxamide]", "values": [{"measurement": "IC50", "setting": "Table 1, read-out: IKK2-resin", "result": "≤ 1", "unit": "µM"}]}
{"smiles": "CN(C)c1ccc(Cl)c(C(=O)Nc2ccc3c(c2)-c2c(c(C(N)=O)nn2-c2ccc(S(C)(=O)=O)cc2)CC3)c1", "note": "[Example 120, 8-{[2-chloro-5-(dimethylamino)benzoyl]amino}-1-[4-(methylsulfonyl)phenyl]-4,5-dihydro-1H-benzo[g]indazole-3-carboxamide]", "values": [{"measurement": "IC50", "setting": "Table 2, read-out: IKK Resin IC50", "result": "≤ 1", "unit": "µM"}]}
{"smiles": "NC(=O)c1nn(-c2ccc(/C=C\\CO)cc2)c2c1CCc1ccc(NC(=O)c3cccnc3Cl)cc1-2", "note": "[Example 300, 8-{[(2-chloropyridin-3-yl)carbonyl]amino}-1-{4-[(1Z)-3-hydroxyprop-1-enyl]phenyl}-4,5-dihydro-1H-benzo[g]indazole-3-carboxamide]", "values": [{"measurement": "IC50", "setting": "Table 11, read-out: IKK2 Resin IC50", "result": "≤ 1", "unit": "µM"}]}
{"smiles": "COCC(=O)Nc1ccc(-n2nc(C(N)=O)c3c2-c2cc(NC(=O)c4ccccc4Cl)ccc2CC3)cc1", "note": "[Example 374, 8-[(2-chlorobenzoyl)amino]-1-{4-[(methoxyacetyl)amino]phenyl}-4,5-dihydro-1H-benzo[g]indazole-3-carboxamide]", "values": [{"measurement": "IC50", "setting": "Table 15, read-out: IKK2 Resin IC50", "result": "≤ 1", "unit": "µM"}]}
{"smiles": "CS(=O)(=O)c1ccc(-n2nc(C(N)=O)c3c2-c2cc(NC(=O)c4cc(SC#N)ccc4[N+](=O)[O-])ccc2CC3)cc1", "note": "[Example 148, 3-[({3-(aminocarbonyl)-1-[4-(methylsulfonyl)phenyl]-4,5-dihydro-1H-benzo[g]indazol-8-yl}amino)carbonyl]-4-nitrophenylthiocyanate]", "values": [{"measurement": "IC50", "setting": "[1]", "result": "≤ 1", "unit": "µM"}]}
{"smiles": "CN(C)CCSc1ccc(Cl)c(C(=O)Nc2ccc3c(c2)-c2c(c(C(N)=O)nn2-c2ccc4c(c2)OCO4)CC3)n1", "note": "[Example 218, 1-(1,3-benzodioxol-5-yl)-8-{[(3-chloro-6-{[2-(dimethylamino)ethyl]thio}pyridin-2-yl)carbonyl]amino}-4,5-dihydro-1H-benzo[g]indazole-3-carboxamide]", "values": [{"measurement": "IC50", "setting": "Table 5, read-out: IKK2 Resin Avg. IC50", "result": "≤ 1", "unit": "µM"}]}
{"smiles": "CC1(C)Cc2c(C(N)=O)nn(-c3ccc4c(c3)OCO4)c2-c2cc(NC(=O)c3cccnc3Cl)ccc21", "note": "[Example 434, 1-(1,3-benzodioxol-5-yl)-8-{[(2-chloropyridin-3-yl)carbonyl]amino}-5,5-dimethyl-4,5-dihydro-1H-benzo[g]indazole-3-carboxamide]", "values": [{"measurement": "IC50", "setting": "Table 22, read-out: IKK2 Resin IC50", "result": "≤ 1", "unit": "µM"}]}
{"smiles": "NC(=O)c1nn(-c2ccc3c(c2)OCO3)c2c1CCc1ccc(NC(=O)c3c(N)cccc3Cl)cc1-2", "note": "[Example 169, 8-[(2-amino-6-chlorobenzoyl)amino]-1-(1,3-benzodioxol-5-yl)-4,5-dihydro-1H-benzo[g]indazole-3-carboxamide]", "values": [{"measurement": "IC50", "setting": "[2]", "result": "≤ 1", "unit": "µM"}]}
{"smiles": "COc1cc(Cl)c(C(=O)Nc2ccc3c(c2)-c2c(c(C(N)=O)nn2-c2ccc(F)cc2)CC3)cc1OC", "note": "[Example 239, 8-[(2-chloro-4,5-dimethoxybenzoyl)amino]-1-(4-fluorophenyl)-4,5-dihydro-1H-benzo[g]indazole-3-carboxamide]", "values": [{"measurement": "IC50", "setting": "Table 6, read-out: IKK2 Resin IC 50", "result": "≤ 1", "unit": "µM"}]}
{"smiles": "Cc1c(O)cccc1C(=O)Nc1ccc2c(c1)-c1c(c(C(N)=O)nn1-c1ccc3c(c1)OCO3)CC2", "note": "[Example 198, 1-(1,3-benzodioxol-5-yl)-8-[(3-hydroxy-2-methylbenzoyl)amino]-4,5-dihydro-1H-benzo[g]indazole-3-carboxamide]", "values": [{"measurement": "IC50", "setting": "[2]", "result": "≤ 1", "unit": "µM"}]}
{"smiles": "COc1ccc(C(=O)Nc2ccc3c(c2)-c2c(c(C(N)=O)nn2-c2ccc4c(c2)OCO4)CC3)c(Cl)c1", "note": "[Example 182, 1-(1,3-benzodioxol-5-yl)-8-[(2-chloro-4-methoxybenzoyl)amino]-4,5-dihydro-1H-benzo[g]indazole-3-carboxamide]", "values": [{"measurement": "IC50", "setting": "[2]", "result": "≤ 1", "unit": "µM"}]}
{"smiles": "CS(=O)(=O)c1ccc(-n2nc(C(N)=O)c3c2-c2cc(NC(=O)c4cc(F)c(F)cc4[N+](=O)[O-])ccc2CC3)cc1", "note": "[Example 149, 8-[(4,5-difluoro-2-nitrobenzoyl)amino]-1-[4-(methylsulfonyl)phenyl]-4,5-dihydro-1H-benzo[g]indazole-3-carboxamide]", "values": [{"measurement": "IC50", "setting": "[1]", "result": "≤ 1", "unit": "µM"}]}
